Read-outs that look alike come from different tables or passages of the source.
What was measured:
Assay type in all cases: cell-based, Human
NCI-H358 cells = experiment: Inhibitory effect of compounds on NCI-H358 cell proliferation
How it was run: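 Adherent NCI-H358 cells were exposed to compound for 72 h, then viability was read by luminescence (Cell Counting-Lite 2.0). Inhibition calculated from RLU relative to cell-free background and vehicle wells; IC50 from a four-parameter fit.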

HT29 cells = experiment: Inhibitory effect of compounds on HT29 cell proliferation; details: read-out: IC50, inhibitory activity on HT29 cell proliferation
How it was run: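 Adherent HT29 cells incubated with diluted compounds for 72 h; viability read by luminescence (Cell Counting-Lite 2.0, 10 min). Inhibition calculated against cell-free background and vehicle-treated cells; IC50 from four-parameter curve fit.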

SKOV-3 cells = experiment: Inhibitory effect of compounds on SKOV-3 cell proliferation; details: read-out: IC50, inhibitory activity on SKOV-3 cell proliferation
Method: (1) Cell plating: First, tumor cells SKOV-3 were cultured in corresponding medium, then digested with trypsin, centrifuged, resuspended, and counted, and the cells were adjusted to an appropriate concentration for plating.
(§1) Co-incubation of the compound of the present disclosure and tumor cells: after the cells adhered to the wall, the medium was removed, and the diluted bioactive molecule (the compound of the present disclosure) was added to the wells of the above plate, and incubated for 72 h.
(§2) In vitro cell viability detection: After the incubation, 50 μL of Cell Counting-Lite™ 2.0 reagent (Vazyme/Novazyme) was added to each well, shaken and mixed well in the dark, reacted for 10 minutes, and then the detection was carried out with a microplate reader (manufacturer: BMG, Model: PHERAStar-FS) for reading. The background RLU was obtained by using cell-free medium (with Cell Counting-Lite™), and the vehicle RLU was obtained by using cell-containing medium (with Cell Counting-Lite™). Cell inhibition rate=1−(sample RLU−background RLU)/(solvent RLU−background RLU)×100%. According to the four-parameter model fitting curve, the half maximal inhibitory concentration (IC50) of the compound was calculated, and the detection results were shown in Table 8.

HCC70 cells = experiment: Inhibitory effect of compounds on HCC70 cell proliferation; details: read-out: IC50, inhibitory activity on HCC70 cell proliferation
Method: (1) Cell plating: First, tumor cells HCC70 were cultured in corresponding medium, then digested with trypsin, centrifuged, resuspended, and counted, and the cells were adjusted to an appropriate concentration for plating.
as §1
as §2, with “16.” for “8.”

A549 cells = experiment: Inhibitory effect of compounds on A549 cell proliferation; details: read-out: IC50, inhibitory activity on A549 cell proliferation
Method: (1) Cell plating: First, tumor cells A549 were cultured in the corresponding medium, then digested with trypsin, centrifuged and resuspended, and counted, and the cells were adjusted to an appropriate concentration for plating.
as §1
as §2, with “activity” for “viability”, “4.” for “8.”

NCI-N87 cells = experiment: Inhibitory effect of compounds on NCI-N87 cell proliferation
How it was run: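 Adherent NCI-N87 cells were exposed to compound dilutions for 72 h. Viability measured by Cell Counting-Lite 2.0 luminescence, with inhibition calculated against vehicle and cell-free background RLU. IC50 from four-parameter fit.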

HCC1806 cells = experiment: Inhibitory effect of compounds on HCC1806 cell proliferation
Method: (1) Cell plating: First, tumor cells HCC1806 were cultured in corresponding medium, then digested with trypsin, centrifuged, resuspended, and counted, and the cells were adjusted to an appropriate concentration for plating.
as §1
as §2, with “6.” for “8.”

Hela cells = experiment: Inhibitory effect of compounds on Hela cell proliferation; details: read-out: IC50, inhibitory activity on Hela cell proliferation
Method: (1) Cell plating: First, tumor cells Hela were cultured in corresponding medium, then digested with trypsin, centrifuged, resuspended, and counted, and the cells were adjusted to an appropriate concentration for plating.
as §1
as §2, with “14.” for “8.”

MDA-MB-231 cells = experiment: Inhibitory effect of compounds on MDA-MB-231 cell proliferation; details: read-out: IC50, inhibitory activity on MDA-MB-231 cell proliferation
Method: (1) Cell plating: First, tumor cells MDA-MB-231 were cultured in corresponding medium, then digested with trypsin, centrifuged, resuspended, and counted, and the cells were adjusted to an appropriate concentration for plating.
as §1
as §2, with “18.” for “8.”

Jeko-1 cells = experiment: Inhibitory effect of compounds on Jeko-1 cell proliferation; details: Jeko-1 human mantle cell lymphoma cells, 72 h incubation, Cell Counting-Lite 2.0; read-out: IC50, inhibitory activity on Jeko-1 cell proliferation
Method: (1) Cell plating: First, tumor cells Jeko-1 were cultured in corresponding medium, then digested with trypsin, centrifuged, resuspended, and counted, and the cells were adjusted to an appropriate concentration for plating.
as §1
as §2, with “20.” for “8.”

[1] = Homo sapiens, NCI-H358, 72 h, read-out: IC50, inhibitory activity on NCI-H358 cell proliferation, NCI-H358 human non-small cell lung cancer cells, 72 h incubation, Cell Counting-Lite 2.0
[2] = Homo sapiens, HCC1806, 72 h, read-out: IC50, inhibitory activity on HCC1806 cell proliferation, HCC1806 human breast squamous carcinoma cells, 72 h incubation, Cell Counting-Lite 2.0
[3] = HT-29, HT29 human colon cancer cells, 72 h incubation, Cell Counting-Lite 2.0
[4] = NCI-N87 human gastric cancer cells, 72 h incubation, Cell Counting-Lite 2.0, read-out: IC50, inhibitory activity on NCI-N87 cell proliferation

| Compound | IC50 (NCI-H358 cells; [1]) | IC50 (HT29 cells; Homo sapiens, HT-29, 72 h) | IC50 (SKOV-3 cells; Homo sapiens, SK-OV-3, 72 h) | IC50 (HCC70 cells; Homo sapiens, HCC70, 72 h) | IC50 (A549 cells; Homo sapiens, A549, 72 h) | IC50 (HCC1806 cells; [2]) | IC50 (HT29 cells; [3]) | IC50 (NCI-N87 cells; [4]) | further results |
| --- | --- | --- | --- | --- | --- | --- | --- | --- | --- |
| CC[C@@]1(O)C(=O)OCc2c1cc1n(c2=O)Cc2c-1nc1cc(Cl)c(C)c3c1c2[C@H](NC[C@H](C)O)CC3 [Example 4 (2-7-B), (2S)—N-((1R,9S)-5-chloro-9-ethyl-9-hydroxy-4-methyl-10,13-dioxo-2,3,9,10,13,15-hexahydro-1H,12H-benzo[de]pyrano[3′,4′:6,7]indolizino[1,2-b]quinolin-1-yl)-2-hydroxypropylamine] | 51.1 nM | 5.44 nM | 9.47 nM | 192 nM | 16.4 nM |  |  |  |  |
| CC[C@@]1(O)C(=O)OCc2c1cc1n(c2=O)Cc2c-1nc1cc(Cl)c(C)c3c1c2[C@@H](NC(=O)[C@H](O)C1CC1)CC3 [Example 5 (2-12-C), (2R)—N-((1S,9S)-5-chloro-9-ethyl-9-hydroxy-4-methyl-10,13-dioxo-2,3,9,10,13,15-hexahydro-1H,12H-benzo[de]pyrano[3′,4′:6,7]indolizino[1,2-b]quinolin-1-yl)-2-cyclopropyl-2-hydroxyacetamide] | 23.1 nM | 1.49 nM | 6.52 nM | 211 nM | 6.64 nM | 2.08 nM |  |  | IC50 (NCI-N87 cells; Homo sapiens, NCI-N87, 72 h, read-out: IC50, inhibitory activity on NCI-N87 cell proliferation, NCI-N87 human gastric cancer cells, 72 h incubation, Cell Counting-Lite 2.0): 4.51 nM |
| CC[C@@]1(O)C(=O)OCc2c1cc1n(c2=O)Cc2c-1nc1cc(Cl)c(C)c3c1c2[C@@H](NC(=O)CO)CC3 [Example 3 (2-1-A), N-((1S,9S)-5-chloro-9-ethyl-9-hydroxy-4-methyl-10,13-dioxo-2,3,9,10,13,15-hexahydro-1H,12H-benzo[de]pyrano[3′,4′:6,7]indolizino[1,2-b]quinolin-1-yl)-2-hydroxyacetamide] | 68.6 nM | 5.03 nM | 7.12 nM |  |  | 1.43 nM |  |  | IC50 (Hela cells; Homo sapiens, HeLa, 72 h): 17 nM; IC50 (MDA-MB-231 cells; Homo sapiens, MDA-MB-231, 72 h): 300 nM |
| CC[C@@]1(O)C(=O)OCc2c1cc1n(c2=O)Cc2c-1nc1cc(F)c(C)cc1c2CNC(=O)C1(O)CC1 [Example 11 (4-10), (S)—N-((4-ethyl-8-fluoro-4-hydroxy-9-methyl-3,14-dioxo-3,4,12,14-tetrahydro-1H-pyrano[3′,4′:6,7]indolizino[1,2-b]quinolin-11-yl)methyl)-1-hydroxycyclopropane-carboxamide] |  |  |  |  |  |  | 0.52 nM | 2.29 nM | IC50 (Hela cells; Hela human cervical cancer cells, 72 h incubation, Cell Counting-Lite 2.0): 3.04 nM; IC50 (Jeko-1 cells): 0.45 nM; IC50 (A549 cells; A549 human lung cancer cells, 72 h incubation, Cell Counting-Lite 2.0): 68.5 nM |
| CC[C@@]1(O)C(=O)OCc2c1cc1n(c2=O)Cc2c-1nc1cc(F)c(C)c3c1c2[C@@](C)(N)CC3 (single isomer, unassigned) [Example 12 (5-13-A)] |  |  |  |  |  |  | 0.88 nM | 2.33 nM | IC50 (NCI-H358 cells; NCI-H358 human non-small cell lung cancer cells, 72 h incubation, Cell Counting-Lite 2.0, read-out: IC50, inhibitory activity on NCI-H358 cell proliferation): 7.01 nM; IC50 (SKOV-3 cells; SK-OV-3, SKOV-3 human ovarian cancer cells, 72 h incubation, Cell Counting-Lite 2.0): 2.09 nM; IC50 (HCC70 cells; HCC70 human breast cancer cells, 72 h incubation, Cell Counting-Lite 2.0): 36.6 nM; IC50 (MDA-MB-231 cells; MDA-MB-231 human breast cancer cells, 72 h incubation, Cell Counting-Lite 2.0): 333 nM; IC50 (HCC1806 cells; HCC1806 human breast squamous carcinoma cells, 72 h incubation, Cell Counting-Lite 2.0, read-out: IC50, inhibitory activity on HCC1806 cell proliferation): 0.96 nM |

— patent US20250346606A1, “CAMPTOTHECIN COMPOUND, PREPARATION METHOD THEREFOR, AND APPLICATION THEREOF” (SICHUAN KELUN-BIOTECH BIOPHARMACEUTICAL CO., LTD., priority 2021, published 2025)
